Experimental data taken from ChEMBL document CHEMBL1201862, “PubChem BioAssay data set” (2004).
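Results reflect a 48-hour exposure of cells in 96-well plates to compound at five concentrations. Here, GI50 denotes the concentration required for 50% inhibition of growth.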 The source made the active and inactive calls. Cut-off read from the data, not from the text of the source: active = GI50 up to about 1.1 µM and inactive = higher.

How the values were obtained:
Test in all cases: DTP human tumour cell line panel, 48 h
Hs-578T = tested on: Hs-578T
HCT-15 = tested on: HCT-15
A549 = tested on: A549
HOP-62 = tested on: HOP-62
CCRF-CEM = tested on: CCRF-CEM
SNB-19 = tested on: SNB-19
OVCAR-8 = tested on: OVCAR-8
SF-539 = tested on: SF-539
UACC-62 = tested on: UACC-62
OVCAR-4 = tested on: OVCAR-4
K562 = tested on: K562
OVCAR-3 = tested on: OVCAR-3
OVCAR-5 = tested on: OVCAR-5
SK-MEL-2 = tested on: SK-MEL-2
BT-549 = tested on: BT-549
TK-10 = tested on: TK-10
SN12C = tested on: SN12C
COLO 205 = tested on: COLO 205
HOP-92 = tested on: HOP-92
EKVX = tested on: EKVX
PC-3 = tested on: PC-3
RPMI-8226 = tested on: RPMI-8226
HCT-116 = tested on: HCT-116
U-251 = tested on: U-251
MDA-MB-435 = tested on: MDA-MB-435
T47D = tested on: T47D
SF-295 = tested on: SF-295
SF-268 = tested on: SF-268
Malme-3M = tested on: Malme-3M
HT-29 = tested on: HT-29
SK-MEL-5 = tested on: SK-MEL-5
CAKI-1 = tested on: CAKI-1
SW-620 = tested on: SW-620
DU-145 = tested on: DU-145
M14 = tested on: M14
MDA-N = tested on: MDA-N
SK-MEL-28 = tested on: SK-MEL-28
NCI-H23 = tested on: NCI-H23
UACC-257 = tested on: UACC-257
A498 = tested on: A498
ACHN = tested on: ACHN
MCF7 = tested on: MCF7
NCI/ADR-RES = tested on: NCI/ADR-RES
SK-OV-3 = tested on: SK-OV-3
HL-60 = tested on: HL-60
NCI-H460 = tested on: NCI-H460
KM12 = tested on: KM12
LOX IMVI = tested on: LOX IMVI
IGROV-1 = tested on: IGROV-1
786-0 = tested on: 786-0
HCC 2998 = tested on: HCC 2998
MDA-MB-231 = tested on: MDA-MB-231
RXF 393 = tested on: RXF 393
NCI-H522 = tested on: NCI-H522
SR = tested on: SR
MOLT-4 = tested on: MOLT-4
UO-31 = tested on: UO-31
SNB-75 = tested on: SNB-75
NCI-H226 = tested on: NCI-H226

Cc1c(C(=O)N2CCN(c3ccc([N+](=O)[O-])cc3)CC2)[n+]([O-])c2cc(Cl)c(Cl)cc2[n+]1[O-]
GI50 (Hs-578T): 22.6 µM (inactive) | GI50 (HCT-15): 17.1 µM | GI50 (A549): 20.2 µM (inactive) | GI50 (HOP-62): 21.7 µM (inactive) | GI50 (CCRF-CEM): > 100 µM (inactive) | GI50 (SNB-19): 18.3 µM (inactive) | GI50 (OVCAR-8): 16.9 µM (inactive) | GI50 (SF-539): 18.6 µM (inactive) | GI50 (UACC-62): 15.8 µM (inactive) | GI50 (OVCAR-4): 10.8 µM (inactive) | GI50 (K562): 26.5 µM (inactive) | GI50 (OVCAR-3): 22.8 µM (inactive) | GI50 (OVCAR-5): 21.6 µM (inactive) | GI50 (SK-MEL-2): 31.3 µM (inactive) | GI50 (BT-549): 16.9 µM (inactive) | GI50 (TK-10): 21.6 µM (inactive) | GI50 (SN12C): 18.4 µM (inactive) | GI50 (COLO 205): 26.4 µM (inactive) | GI50 (HOP-92): 15.2 µM (inactive) | GI50 (EKVX): 20.6 µM (inactive) | GI50 (PC-3): 19.1 µM (inactive) | GI50 (RPMI-8226): 15.6 µM (inactive) | GI50 (HCT-116): 19 µM (inactive) | GI50 (U-251): 20.9 µM (inactive) | GI50 (MDA-MB-435): 35.7 µM (inactive) | GI50 (T47D): 17.1 µM (inactive) | GI50 (SF-295): 19.1 µM (inactive) | GI50 (SF-268): 17.3 µM (inactive) | GI50 (Malme-3M): 21.8 µM (inactive) | GI50 (HT-29): 25.2 µM (inactive) | GI50 (SK-MEL-5): 10.9 µM (inactive) | GI50 (CAKI-1): 25.1 µM (inactive) | GI50 (SW-620): 21.6 µM (inactive) | GI50 (DU-145): 19.8 µM (inactive) | GI50 (M14): 27.1 µM (inactive) | GI50 (MDA-N): 26.7 µM (inactive) | GI50 (SK-MEL-28): 26.4 µM (inactive) | GI50 (NCI-H23): 14.8 µM (inactive) | GI50 (UACC-257): 35.6 µM (inactive) | GI50 (A498): 7.19 µM (inactive) | GI50 (ACHN): 13.5 µM (inactive) | GI50 (MCF7): 16.2 µM (inactive) | GI50 (NCI/ADR-RES): 16.8 µM (inactive) | GI50 (SK-OV-3): 15.9 µM (inactive) | GI50 (HL-60): 28.4 µM (inactive) | GI50 (NCI-H460): 19.5 µM (inactive) | GI50 (KM12): 36.8 µM (inactive) | GI50 (LOX IMVI): 29.9 µM (inactive) | GI50 (IGROV-1): 22.2 µM (inactive) | GI50 (786-0): 16.5 µM (inactive) | GI50 (HCC 2998): 13.2 µM (inactive) | GI50 (MDA-MB-231): 21.2 µM (inactive) | GI50 (RXF 393): 13.6 µM (inactive) | GI50 (NCI-H522): 16.7 µM (inactive) | GI50 (SR): 21.2 µM (inactive) | GI50 (MOLT-4): 72.8 µM (inactive)

Cc1cc(=O)oc2cc(SC(=O)N(C)C)ccc12
GI50 (UO-31): > 100 µM (inactive) | GI50 (SNB-75): > 100 µM (inactive) | GI50 (Hs-578T): > 100 µM (inactive) | GI50 (HCT-15): > 100 µM | GI50 (A549): > 100 µM (inactive) | GI50 (HOP-62): > 100 µM (inactive) | GI50 (SNB-19): > 100 µM (inactive) | GI50 (OVCAR-8): > 100 µM (inactive) | GI50 (SF-539): > 100 µM (inactive) | GI50 (UACC-62): 57.1 µM (inactive) | GI50 (OVCAR-4): > 100 µM (inactive) | GI50 (NCI-H226): > 100 µM (inactive) | GI50 (OVCAR-3): > 100 µM (inactive) | GI50 (OVCAR-5): 77.8 µM (inactive) | GI50 (SK-MEL-2): > 100 µM (inactive) | GI50 (BT-549): > 100 µM (inactive) | GI50 (TK-10): > 100 µM (inactive) | GI50 (SN12C): > 100 µM (inactive) | GI50 (COLO 205): > 100 µM (inactive) | GI50 (HOP-92): > 100 µM (inactive) | GI50 (EKVX): 61 µM (inactive) | GI50 (PC-3): > 100 µM (inactive) | GI50 (RPMI-8226): > 100 µM (inactive) | GI50 (HCT-116): > 100 µM (inactive) | GI50 (U-251): > 100 µM (inactive) | GI50 (MDA-MB-435): > 100 µM (inactive) | GI50 (T47D): > 100 µM (inactive) | GI50 (SF-295): > 100 µM (inactive) | GI50 (SF-268): > 100 µM (inactive) | GI50 (Malme-3M): > 100 µM (inactive) | GI50 (HT-29): > 100 µM (inactive) | GI50 (SK-MEL-5): > 100 µM (inactive) | GI50 (CAKI-1): > 100 µM (inactive) | GI50 (SW-620): > 100 µM (inactive) | GI50 (DU-145): > 100 µM (inactive) | GI50 (M14): > 100 µM (inactive) | GI50 (MDA-N): > 100 µM (inactive) | GI50 (SK-MEL-28): > 100 µM (inactive) | GI50 (NCI-H23): > 100 µM (inactive) | GI50 (UACC-257): > 100 µM (inactive) | GI50 (A498): > 100 µM (inactive) | GI50 (ACHN): > 100 µM (inactive) | GI50 (MCF7): > 100 µM (inactive) | GI50 (NCI/ADR-RES): > 100 µM (inactive) | GI50 (SK-OV-3): > 100 µM (inactive) | GI50 (HL-60): > 100 µM (inactive) | GI50 (NCI-H460): > 100 µM (inactive) | GI50 (KM12): > 100 µM (inactive) | GI50 (LOX IMVI): > 100 µM (inactive) | GI50 (IGROV-1): > 100 µM (inactive) | GI50 (786-0): > 100 µM (inactive) | GI50 (HCC 2998): > 100 µM (inactive) | GI50 (MDA-MB-231): > 100 µM (inactive) | GI50 (RXF 393): > 100 µM (inactive) | GI50 (NCI-H522): > 100 µM (inactive) | GI50 (SR): > 100 µM (inactive) | GI50 (MOLT-4): > 100 µM (inactive)
